The source of these data is ChEMBL document CHEMBL4418308, “cGAS ANTAGONIST COMPOUNDS” (2017).

Experiment [1] deals with T1, Cyclic GMP-AMP synthase (Homo sapiens, UniProt Q8N884). Briefly: Inhibition of recombinant His6-SUMO tagged human CGAS expressed in Escherichia coli BL21/pLys cells incubated for 20 mins by Kinase Glo chemiluminescence assay.
The target of experiment [2] is T1, Cyclic GMP-AMP synthase. In words: Inhibition of CGAS in human THP1 cells transfected with interferon stimulatory DNA and measured after 16 hrs by Gaussia luciferase reporter gene assay. The class given is cell-based.

T1 sequence (Q8N884 whole entry): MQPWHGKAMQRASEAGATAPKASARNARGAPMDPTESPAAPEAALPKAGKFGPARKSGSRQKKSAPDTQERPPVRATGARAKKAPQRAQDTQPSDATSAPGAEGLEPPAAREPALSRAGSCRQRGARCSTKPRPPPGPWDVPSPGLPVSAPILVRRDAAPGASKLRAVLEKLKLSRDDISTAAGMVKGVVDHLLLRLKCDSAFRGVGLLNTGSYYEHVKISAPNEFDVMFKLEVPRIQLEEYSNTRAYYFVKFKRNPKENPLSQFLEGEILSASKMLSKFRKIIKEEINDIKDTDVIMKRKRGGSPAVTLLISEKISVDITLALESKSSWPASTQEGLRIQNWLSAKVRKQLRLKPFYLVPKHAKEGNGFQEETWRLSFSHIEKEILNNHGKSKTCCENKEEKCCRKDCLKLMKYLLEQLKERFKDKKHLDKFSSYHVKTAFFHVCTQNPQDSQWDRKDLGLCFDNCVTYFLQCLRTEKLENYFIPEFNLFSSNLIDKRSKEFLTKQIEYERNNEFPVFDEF

`Nc1ncc(COc2cc(/C=c3\sc4nccn4c3=O)c(Br)cc2O)cn1`: the IC50 in experiment [1] was 0.5 to 10 µM; in experiment [2] it was no more than 2.5 µM.
With `CN1C(=O)S/C(=C\c2cc(Oc3ccc(-c4ccccn4)cc3)c(O)cc2Br)C1=O`, the IC50 in experiment [1] was no less than 10 µM.
For the compound `COc1cc(/C=C2\SC(=O)N(C)C2=O)c(Br)cc1NS(=O)(=O)c1csc(N)n1`, the IC50 in experiment [1] was 0.5 to 10 µM; in experiment [2] it was no more than 2.5 µM.
Turning to `CN1C(=O)S/C(=C\c2cc(Oc3ccc([N+](=O)[O-])nc3)c(O)cc2Br)C1=O`, the IC50 in experiment [1] was no less than 10 µM.
Consider `O=C1/C(=C/c2cc3oc(=O)[nH]c3cc2Br)Sc2ncccc21`, for which the IC50 in experiment [1] is no less than 10 µM.
On the same count and under the same terms, then `CN1C(=O)S/C(=C\c2cc3cc[nH]c3c(F)c2Br)C1=O`, with 0.5 to 10 µM.
Same read-out and setting: then `CCC/N=C1/S/C(=C\c2cc(OC)c(O)cc2Br)C(=O)N1C`, with no less than 10 µM; and `COc1cc(/C=C2\SC(=O)N(C)C2=O)c(Br)cc1Oc1cnc(NCc2ccncc2)s1`, with no less than 10 µM.
As to `CN1C(=O)S/C(=C\c2cc(Oc3ccc(-c4ccncc4)cc3)c(O)cc2Br)C1=O`, the IC50 in experiment [1] was no less than 10 µM.
On the same count and under the same terms, then `COc1cc(/C=C2\SC(=O)N(C)C2=O)c(Br)cc1Oc1ccnc2ccccc12`, with no less than 10 µM; and `O=C1NC(=O)/C(=C2\CCCc3cnccc32)S1`, with no more than 0.5 µM.
Consider `CN1C(=O)S/C(=C\c2ccc(O)cc2Br)C1=O`, for which the IC50 in experiment [1] is no less than 10 µM.
Regarding `CN1C(=O)S/C(=C\c2cc(OCc3cnc(NCc4ccccn4)nc3)c(O)c(F)c2Br)C1=O`, the IC50 in experiment [1] was no less than 10 µM.
As to `CC(C)c1cc(/C=C2\Sc3ncccc3C2=O)c(Br)cc1O`, the IC50 in experiment [1] was no less than 10 µM.
Still for that read-out and setting: then `COc1cc(/C=C2\Sc3ncc(F)cc3C2=O)c(Br)cc1O`, with no more than 0.5 µM.
The same measure, in the same setting: then `CN1C(=O)S/C(=C\c2cc(Oc3ccnc(N)c3)c(O)cc2Br)C1=O`, with no less than 10 µM.
Same read-out and setting: then `CN1C(=O)S/C(=C\c2cc(OCc3ccc(NC(=O)c4ccncc4)nc3)c(O)cc2Br)C1=O`, with no more than 0.5 µM; and `CN1CCC(COc2cc(/C=C3\SC(=O)N(C)C3=O)c(Br)cc2O)CC1`, with no less than 10 µM.
On to `CC(Oc1cc(/C=c2\sc3nccn3c2=O)c(Br)c(F)c1O)c1cnc(N)nc1` (stereo not given), for which the IC50 in experiment [1] was 0.5 to 10 µM; in experiment [2], no less than 10 µM.
Consider `COc1nc(N)ncc1COc1cc(/C=C2\SC(=O)N(C)C2=O)c(Br)cc1O`, for which, in experiment [1], the IC50 was no less than 10 µM.
The same measure, in the same setting: to `CN1C(=O)S/C(=C\c2cc(Oc3cnc(N)s3)c(O)c(F)c2Br)C1=O` belongs 0.5 to 10 µM; to `CN1C(=O)S/C(=C\c2cc(OCc3ccn(Cc4ccccc4)c(=O)c3)c(O)cc2Br)C1=O`, no less than 10 µM.
On to `CC(Oc1cc(/C=C2\Sc3ncc(F)cc3C2=O)c(Br)c(F)c1O)c1cnc(N)nc1` (stereo not given), for which the results for the IC50 in experiment [1] and in experiment [2] were no more than 0.5 µM and 2.5 to 10 µM, respectively.
Consider `CC/N=C1/S/C(=C\c2cc(OC)c(O)cc2Br)C(=O)N1C`, for which the IC50 in experiment [1] was no less than 10 µM.
Take `Nc1ncc(COc2cc(/C=C3\Sc4ncccc4C3=O)c(Br)cc2O)c(C2CC2)n1`: the IC50 in experiment [1] was no more than 0.5 µM; in experiment [2] it was 2.5 to 10 µM.
Turning to `COc1cc(/C=C2\SC(=O)N(C)C2=O)c(Br)cc1NS(=O)(=O)C(F)(F)F`, the IC50 in experiment [1] fell in the range of 0.5 to 10 µM.
For the compound `O=C1/C(=C/c2cc(C(F)(F)F)c(O)cc2Br)Sc2ncccc21`, the IC50 in experiment [1] is no more than 0.5 µM.
Take `CC(Oc1cc(/C=C2\SC(=O)N(C)C2=O)c(Br)c(F)c1O)c1cnc(N)nc1` (stereo not given): the IC50 in experiment [1] was no more than 0.5 µM; in experiment [2], no more than 2.5 µM.
Take `CSc1ncc(COc2cc(/C=C3\SC(=O)N(C)C3=O)c(Br)cc2O)c(SC)n1`: in experiment [1], the IC50 is no less than 10 µM.
Consider `CN1C(=O)S/C(=C\c2cc(OCc3cnc(C4CCNCC4)nc3)c(O)cc2Br)C1=O`, for which the IC50 in experiment [1] lay within 0.5 to 10 µM.
For the compound `CC(C)COc1cc(/C=C2\SC(=O)N(C)C2=O)c(Br)cc1O`, in experiment [1], the 50% inhibitory concentration (IC50) is no less than 10 µM.
For the compound `CN1C(=O)S/C(=C\c2cc(OCc3cncc(NCc4ccccn4)c3)c(O)cc2Br)C1=O`, the IC50 in experiment [1] is no less than 10 µM.
Same read-out and setting: then `CCc1cc(/C=C2\SC(=O)N(C)C2=O)c(Br)cc1O`, with 0.5 to 10 µM.
On the same count and under the same terms, to `CN1CCC(c2ncc(COc3cc(/C=C4\SC(=O)N(C)C4=O)c(Br)cc3O)cn2)CC1` belongs no less than 10 µM; to `N=C1NC(=O)/C(=C/c2ccncc2)S1`, no less than 10 µM; to `CN1C(=O)S/C(=C\c2cc(OCc3cnc(O)nc3)c(O)cc2Br)C1=O`, no less than 10 µM.
The same measure, in the same setting: to `CN1C(=O)S/C(=C\c2cc(OCc3cnc(-c4ccccn4)nc3)c(O)cc2Br)C1=O` belongs 0.5 to 10 µM.
On to `CN1C(=O)S/C(=C\c2cc(OCc3cncc(NC(=O)c4ccncc4)c3)c(O)cc2Br)C1=O`, for which, in experiment [1], the IC50 is no less than 10 µM.
The same measure, in the same setting: then `CN1C(=O)S/C(=C\c2cc(CC(F)(F)F)c(O)cc2Br)C1=O`, with 0.5 to 10 µM.
